molecular target: Telomerase reverse transcriptase (Homo sapiens, UniProt O14746); test: Inhibitory activity against human telomerase
Sequence (O14746 whole entry): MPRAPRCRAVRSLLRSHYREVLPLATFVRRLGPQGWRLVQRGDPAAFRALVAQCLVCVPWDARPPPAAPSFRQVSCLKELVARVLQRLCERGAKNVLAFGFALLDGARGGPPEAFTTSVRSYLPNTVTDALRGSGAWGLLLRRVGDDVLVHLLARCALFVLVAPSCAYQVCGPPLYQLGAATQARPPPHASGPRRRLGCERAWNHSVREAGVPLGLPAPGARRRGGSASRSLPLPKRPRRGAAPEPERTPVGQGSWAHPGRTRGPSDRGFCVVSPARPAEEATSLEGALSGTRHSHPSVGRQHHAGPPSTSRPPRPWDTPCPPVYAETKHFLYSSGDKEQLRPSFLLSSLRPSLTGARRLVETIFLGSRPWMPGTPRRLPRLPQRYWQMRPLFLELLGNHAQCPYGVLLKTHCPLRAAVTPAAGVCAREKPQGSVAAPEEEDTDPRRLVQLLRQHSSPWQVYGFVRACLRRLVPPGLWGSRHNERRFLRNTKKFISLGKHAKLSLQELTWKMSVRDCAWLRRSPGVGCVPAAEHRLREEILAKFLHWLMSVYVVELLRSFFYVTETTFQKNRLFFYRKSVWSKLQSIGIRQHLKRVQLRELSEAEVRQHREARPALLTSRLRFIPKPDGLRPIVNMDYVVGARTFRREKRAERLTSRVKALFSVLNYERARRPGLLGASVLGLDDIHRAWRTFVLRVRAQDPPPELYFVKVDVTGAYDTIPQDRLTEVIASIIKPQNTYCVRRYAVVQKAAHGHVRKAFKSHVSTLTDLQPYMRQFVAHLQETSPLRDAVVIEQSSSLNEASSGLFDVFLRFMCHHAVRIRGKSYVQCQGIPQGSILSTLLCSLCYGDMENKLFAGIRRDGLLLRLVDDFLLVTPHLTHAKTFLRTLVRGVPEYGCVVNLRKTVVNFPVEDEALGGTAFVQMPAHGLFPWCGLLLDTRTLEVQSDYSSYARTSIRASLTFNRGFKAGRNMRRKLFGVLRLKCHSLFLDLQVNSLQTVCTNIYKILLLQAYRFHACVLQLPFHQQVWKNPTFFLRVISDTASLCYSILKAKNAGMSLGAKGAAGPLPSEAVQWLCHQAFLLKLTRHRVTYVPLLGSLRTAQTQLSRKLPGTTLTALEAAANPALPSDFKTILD

SMILES	IC50 [nM]
Cc1cn([C@H]2C[C@H](OP(=O)(O)OC[C@H]3O[C@@H](n4cnc5c(N)ncnc54)C[C@@H]3OP(=O)(O)OC[C@H]3O[C@@H](N4C=NC5C(=O)N=C(N)N=C54)C[C@@H]3OP(=O)(O)OC[C@H]3O[C@@H](N4C=NC5C(=O)N=C(N)N=C54)C[C@@H]3OP(=O)(O)OC[C@H]3O[C@@H](N4C=NC5C(=O)N=C(NC(=O)O)N=C54)C[C@@H]3O)[C@@H](COP(=O)(O)ON)O2)c(=O)[nH]c1=O (some centres undefined)	1160
Cc1cn(C2CC(OP(=O)(O)OCC3OC(n4cnc5c(N)ncnc54)CC3OP(=O)(O)OCC3OC(n4cnc5c(=O)[nH]c(N)nc54)CC3OP(=O)(O)OCC3OC(n4cnc5c(=O)[nH]c(N)nc54)CC3OP(=O)(O)OCC3OC(n4cnc5c(=O)[nH]c(N)nc54)CC3O)C(COP(=O)(O)C(=O)[C@H](CS)NC(=O)[C@H](CCCCN)NC(=O)[C@H](CCCCN)NC(=O)[C@H](CCCCN)NC(=O)[C@H](CCCCN)NC(=O)[C@H](CCCCN)NC(=O)[C@H](C)N)O2)c(=O)[nH]c1=O (some centres undefined)	290
Cc1cn(C2CC(OP(=O)(O)OCC3OC(n4cnc5c(N)ncnc54)CC3OP(=O)(O)OCC3OC(n4cnc5c(=O)[nH]c(N)nc54)CC3OP(=O)(O)OCC3OC(n4cnc5c(=O)[nH]c(N)nc54)CC3OP(=O)(O)OCC3OC(n4cnc5c(=O)[nH]c(N)nc54)CC3O)C(COP(=O)(O)C(=O)[C@H](CS)NC(=O)[C@H](CCCNC(=N)N)NC(=O)[C@H](CCCNC(=N)N)NC(=O)[C@H](CCCNC(=N)N)NC(=O)[C@H](CCCNC(=N)N)NC(=O)[C@H](CCCNC(=N)N)NC(=O)[C@H](C)N)O2)c(=O)[nH]c1=O (some centres undefined)	140
Cc1cn(C2CC(OP(=O)(O)OCC3OC(n4cnc5c(N)ncnc54)CC3OP(=O)(O)OCC3OC(n4cnc5c(N)nc(N)nc54)CC3OP(=O)(O)OCC3OC(n4cnc5c(O)nc(N)nc54)CC3OP(=O)(O)OCC3OC(n4cnc5c(O)nc(N)nc54)CC3O)C(COP(=O)(O)C(=O)[C@H](CS)NC(=O)[C@H](CCCN)NC(=O)[C@H](CCCN)NC(=O)[C@H](CCCN)NC(=O)[C@H](CCCN)NC(=O)[C@H](CCCN)NC(=O)[C@H](C)N)O2)c(=O)[nH]c1=O (some centres undefined)	450

Source: ChEMBL document CHEMBL1132041, “Inhibition of human telomerase by PNA-cationic peptide conjugates” (Bioorg Med Chem Lett, 1999)
